Source: PubChem BioAssay AID256 (DTP/NCI, 2004)
Where “and” joins values, the source holds several entries; their conditions need not be identical. Equal entries are not always repeated. Inconclusive results and toxic doses are left out.

Tested on: CD2F1 mice, L1210 leukemia ip, survival T/C
Experiment: NCI In Vivo Anticancer Drug Screen. Data for tumor model L1210 Leukemia (intraperitoneal) in CD2F1 (CDF1) mice
Details: higher = longer survival
Outline: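 Mice carrying a transplanted tumor received test compound or vehicle alone. The value is the measurement in the treated group divided by that in the vehicle-treated control group.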

[1] = endpoint: mean survival time, dose: 100.0 mg/kg/injection, schedule: Q04DX003 (ip), vehicle: saline with Tween-80
[2] = endpoint: mean survival time, dose: 200.0 mg/kg/injection, schedule: Q04DX003 (ip), vehicle: saline with Tween-80
[3] = endpoint: mean survival time, dose: 400.0 mg/kg/injection, schedule: Q04DX003 (ip), vehicle: saline with Tween-80
[4] = endpoint: mean survival time, dose: 100.0 mg/kg/injection, schedule: Q01DX009 (ip), vehicle: other
[5] = endpoint: mean survival time, dose: 200.0 mg/kg/injection, schedule: Q01DX009 (ip), vehicle: other
[6] = endpoint: mean survival time, dose: 400.0 mg/kg/injection, schedule: Q01DX009 (ip), vehicle: other
[7] = endpoint: mean survival time, dose: 100.0 mg/kg/injection, schedule: Q01DX009 (ip), vehicle: saline with Tween-80
[8] = endpoint: mean survival time, dose: 200.0 mg/kg/injection, schedule: Q01DX009 (ip), vehicle: saline with Tween-80
[9] = endpoint: mean survival time, dose: 100.0 mg/kg/injection, schedule: Q01DX001 (ip), vehicle: saline

For `CCOC(=O)c1ncn(C2OC(CO)C(O)C2O)c1N` (configuration not stated), the T/C (endpoint: mean survival time, dose: 12.5 mg/kg/injection, schedule: Q01DX005 (ip), vehicle: water) was 97 % of control, the T/C (endpoint: mean survival time, dose: 25.0 mg/kg/injection, schedule: Q01DX005 (ip), vehicle: water) was 98 % of control and the T/C (endpoint: mean survival time, dose: 50.0 mg/kg/injection, schedule: Q01DX005 (ip), vehicle: water) was 103 % of control. The T/C (endpoint: mean survival time, dose: 100.0 mg/kg/injection, schedule: Q01DX005 (ip), vehicle: water) was 101 % of control and the T/C (endpoint: mean survival time, dose: 200.0 mg/kg/injection, schedule: Q01DX005 (ip), vehicle: water) was 97 % of control.
`CN(C)c1ccc(N=Nc2ccc(Cl)c(Cl)c2)cc1` was tested, and the T/C [1] was 98 % of control, the T/C [2] was 95 % of control and the T/C [3] was 96 % of control.
`Cc1ccc(C2OC23CC(C)(C)c2ccccc2C3=O)cc1` (configuration not stated) was tested, and the T/C [4] was 100 % of control, the T/C [5] was 96 % of control and the T/C [6] was 107 % of control.
With `CS(=O)(=O)OC(OS(C)(=O)=O)(OS(C)(=O)=O)OS(C)(=O)=O` the T/C [1] was 111 % of control, the T/C [2] was 105 % of control and the T/C [3] was 105 % of control.
`CNC(=O)Nc1ccc(C(=O)NC(C)C)cc1` was tested, and the T/C (endpoint: mean survival time, dose: 22.0 mg/kg/injection, schedule: Q01DX009 (ip), vehicle: other) was 93 % of control, the T/C (endpoint: mean survival time, dose: 33.0 mg/kg/injection, schedule: Q01DX009 (ip), vehicle: other) was 102 % of control and the T/C (endpoint: mean survival time, dose: 50.0 mg/kg/injection, schedule: Q01DX009 (ip), vehicle: other) was 94 % of control. The T/C [4] was 95 % of control, the T/C [5] was 91 % of control and the T/C [6] was 96 % of control. For the same molecule, the T/C (endpoint: mean survival time, dose: 800.0 mg/kg/injection, schedule: Q01DX009 (ip), vehicle: other) was 100 % of control.
`Cc1ccc(C2(c3ccccc3)OC(=O)c3ccccc32)cc1` (configuration not stated) was tested, and the T/C [7] was 86 % of control, the T/C [1] was 89 % of control and the T/C [2] was 87 % of control. The T/C [3] was 86 % of control.
For `Nc1nc(N)c(N=Nc2ccc(S(=O)(=O)O)cc2)c(N)n1`, the T/C [7] was 94 % of control, the T/C [8] was 94 % of control and the T/C (endpoint: mean survival time, dose: 400.0 mg/kg/injection, schedule: Q01DX009 (ip), vehicle: saline with Tween-80) was 98 % of control.
For `O=c1n(-c2ccccc2)c(=O)n(-c2ccccc2)c(=O)n1-c1ccccc1`, the T/C (endpoint: mean survival time, dose: 100.0 mg/kg/injection, schedule: Q01DX001 (ip), vehicle: Klucel (hydroxypropylcellulose) (HPC)) was 93 % of control, the T/C (endpoint: mean survival time, dose: 200.0 mg/kg/injection, schedule: Q01DX001 (ip), vehicle: Klucel (hydroxypropylcellulose) (HPC)) was 90 % of control and the T/C (endpoint: mean survival time, dose: 400.0 mg/kg/injection, schedule: Q01DX001 (ip), vehicle: Klucel (hydroxypropylcellulose) (HPC)) was 101 % of control.
`COc1ccc(NC(=O)Nc2cccc(Cl)c2)c(Cl)c1` was tested, and the T/C (endpoint: mean survival time, dose: 25.0 mg/kg/injection, schedule: Q04DX002 (ip), vehicle: saline with Tween-80) was 88 % of control, the T/C (endpoint: mean survival time, dose: 50.0 mg/kg/injection, schedule: Q04DX002 (ip), vehicle: saline with Tween-80) was 92 % of control and the T/C (endpoint: mean survival time, dose: 400.0 mg/kg/injection, schedule: Q04DX002 (ip), vehicle: saline with Tween-80) was 88 % of control.
With `CC(C)C1C=CC(C)(/C=C/N2CCCC2)CC1` (configuration not stated) the T/C (endpoint: mean survival time, dose: 75.0 mg/kg/injection, schedule: Q01DX001 (ip), vehicle: other) was 98 % of control, the T/C (endpoint: mean survival time, dose: 150.0 mg/kg/injection, schedule: Q01DX001 (ip), vehicle: other) was 98 % of control and the T/C (endpoint: mean survival time, dose: 300.0 mg/kg/injection, schedule: Q01DX001 (ip), vehicle: other) was 102 % of control.
With `O=C(CCCCCCCCC(=O)N/N=C/c1ccc(Cl)c(Cl)c1)N/N=C/c1ccc(Cl)c(Cl)c1` the T/C (endpoint: mean survival time, dose: 100.0 mg/kg/injection, schedule: Q01DX001 (ip), vehicle: saline with Tween-80) was 95 % of control, the T/C (endpoint: mean survival time, dose: 200.0 mg/kg/injection, schedule: Q01DX001 (ip), vehicle: saline with Tween-80) was 95 % of control and the T/C (endpoint: mean survival time, dose: 400.0 mg/kg/injection, schedule: Q01DX001 (ip), vehicle: saline with Tween-80) was 94 % of control.
In the case of `NC1CCCCC1N.O=S(=O)([O-])CCCN1CCOCC1.O=S(=O)([O-])CCCN1CCOCC1.[Pt+4]`, the T/C (endpoint: median survival time, dose: 3.12 mg/kg/injection, schedule: Q04DX003 (ip), vehicle: saline with Tween-80) is reported as 361 % of control, the T/C (endpoint: median survival time, dose: 6.25 mg/kg/injection, schedule: Q04DX003 (ip), vehicle: saline with Tween-80) is reported as 174 % of control and 361 % of control and the T/C (endpoint: median survival time, dose: 12.5 mg/kg/injection, schedule: Q04DX003 (ip), vehicle: saline with Tween-80) is reported as 195 % of control and 196 % of control. For the same molecule, the T/C (endpoint: median survival time, dose: 25.0 mg/kg/injection, schedule: Q04DX003 (ip), vehicle: saline with Tween-80) was 341 % of control and 361 % of control and the T/C (endpoint: median survival time, dose: 50.0 mg/kg/injection, schedule: Q04DX003 (ip), vehicle: saline with Tween-80) was 228 % of control and 365 % of control.
`O=C1c2ccccc2C(=O)c2c1cccc2N1CCOCC1` was tested, and the T/C (endpoint: mean survival time, dose: 25.0 mg/kg/injection, schedule: Q04DX002 (ip), vehicle: Klucel (hydroxypropylcellulose) (HPC)) was 96 % of control, the T/C (endpoint: mean survival time, dose: 50.0 mg/kg/injection, schedule: Q04DX002 (ip), vehicle: Klucel (hydroxypropylcellulose) (HPC)) was 102 % of control and the T/C (endpoint: mean survival time, dose: 100.0 mg/kg/injection, schedule: Q04DX002 (ip), vehicle: Klucel (hydroxypropylcellulose) (HPC)) was 102 % of control. The T/C (endpoint: mean survival time, dose: 200.0 mg/kg/injection, schedule: Q04DX002 (ip), vehicle: Klucel (hydroxypropylcellulose) (HPC)) was 96 % of control.
For `COc1ccc(C2=CCCCc3cc(O)c(OC)cc32)cc1`, the T/C (endpoint: mean survival time, dose: 50.0 mg/kg/injection, schedule: Q01DX009 (ip), vehicle: saline with Tween-80) was 100 % of control, the T/C [7] was 100 % of control and the T/C [8] was 100 % of control.
`CCC(C)CCCOC(=O)c1c(Cl)c(Cl)c(Cl)c(Cl)c1C(=O)O` (configuration not stated) was tested, and the T/C [9] was 106 % of control, the T/C (endpoint: mean survival time, dose: 200.0 mg/kg/injection, schedule: Q01DX001 (ip), vehicle: saline) was 112 % of control and the T/C (endpoint: mean survival time, dose: 400.0 mg/kg/injection, schedule: Q01DX001 (ip), vehicle: saline) was 102 % of control.
With `CN(C)C(=O)/N=N/C(=O)N(C)C` the T/C [9] was 104 % of control.
With `CC1(Br)OC(=O)CC1Br` (configuration not stated) the T/C (endpoint: mean survival time, dose: 100.0 mg/kg/injection, schedule: Q04DX002 (ip), vehicle: saline with Tween-80) was 106 % of control and the T/C (endpoint: mean survival time, dose: 200.0 mg/kg/injection, schedule: Q04DX002 (ip), vehicle: saline with Tween-80) was 91 % of control.
`COc1cccc2c1C(=O)c1c(O)c3c(c(O)c1C2=O)C[C@@](O)(/C(C)=N/NC(=O)c1ccc(-c2ccccc2)cc1)C[C@@H]3OC1CC(N)C(O)C(C)O1` (some centres not stated) was tested, and the T/C (endpoint: mean survival time, dose: 0.06 mg/kg/injection, schedule: Q01DX009 (ip), vehicle: water) was 104 % of control, the T/C (endpoint: mean survival time, dose: 0.13 mg/kg/injection, schedule: Q01DX009 (ip), vehicle: water) was 103 % of control and the T/C (endpoint: mean survival time, dose: 0.25 mg/kg/injection, schedule: Q01DX009 (ip), vehicle: water) was 114 % of control. The T/C (endpoint: mean survival time, dose: 0.5 mg/kg/injection, schedule: Q01DX009 (ip), vehicle: water) was 117 % of control, the T/C (endpoint: mean survival time, dose: 1.0 mg/kg/injection, schedule: Q01DX009 (ip), vehicle: water) was 115 % of control and the T/C (endpoint: mean survival time, dose: 2.0 mg/kg/injection, schedule: Q01DX009 (ip), vehicle: water) was 122 % of control. The T/C (endpoint: mean survival time, dose: 4.0 mg/kg/injection, schedule: Q01DX009 (ip), vehicle: water) was 111 % of control, the T/C (endpoint: mean survival time, dose: 8.0 mg/kg/injection, schedule: Q01DX009 (ip), vehicle: water) was 117 % of control and the T/C (endpoint: mean survival time, dose: 16.0 mg/kg/injection, schedule: Q01DX009 (ip), vehicle: water) was 88 % of control.
With `O=C(c1ccccc1)c1c(-c2ccccc2)c(-c2ccccc2)c(-c2ccccc2)c(-c2ccccc2)c1-c1ccccc1` the T/C [1] was 89 % of control, the T/C [2] was 90 % of control and the T/C [3] was 90 % of control.
`O=C(O)CCC(O)CC(=O)OCc1ccccc1` (configuration not stated) was tested, and the T/C (endpoint: mean survival time, dose: 100.0 mg/kg/injection, schedule: Q04DX002 (ip), vehicle: saline) was 107 % of control, the T/C (endpoint: mean survival time, dose: 200.0 mg/kg/injection, schedule: Q04DX002 (ip), vehicle: saline) was 107 % of control and the T/C (endpoint: mean survival time, dose: 400.0 mg/kg/injection, schedule: Q04DX002 (ip), vehicle: saline) was 96 % of control.
For `O=C(OCc1ccccc1)C1CCCN1C(=O)C(CSC(c1ccccc1)(c1ccccc1)c1ccccc1)NC(c1ccccc1)(c1ccccc1)c1ccccc1` (configuration not stated), the T/C (endpoint: mean survival time, dose: 50.0 mg/kg/injection, schedule: Q01DX009 (ip), vehicle: saline) was 97 % of control, the T/C (endpoint: mean survival time, dose: 100.0 mg/kg/injection, schedule: Q01DX009 (ip), vehicle: saline) was 97 % of control and the T/C (endpoint: mean survival time, dose: 200.0 mg/kg/injection, schedule: Q01DX009 (ip), vehicle: saline) was 95 % of control. The T/C (endpoint: mean survival time, dose: 400.0 mg/kg/injection, schedule: Q01DX009 (ip), vehicle: saline) was 95 % of control.
`CCOC(=O)CCCSc1n[nH]c(=O)[nH]c1=O` was tested, and the T/C (endpoint: mean survival time, dose: 12.5 mg/kg/injection, schedule: Q01DX005 (ip), vehicle: distilled water + Tween-80) was 100 % of control, the T/C (endpoint: mean survival time, dose: 25.0 mg/kg/injection, schedule: Q01DX005 (ip), vehicle: distilled water + Tween-80) was 102 % of control and the T/C (endpoint: mean survival time, dose: 50.0 mg/kg/injection, schedule: Q01DX005 (ip), vehicle: distilled water + Tween-80) was 96 % of control. For the same molecule, the T/C (endpoint: mean survival time, dose: 100.0 mg/kg/injection, schedule: Q01DX005 (ip), vehicle: distilled water + Tween-80) was 91 % of control and the T/C (endpoint: mean survival time, dose: 200.0 mg/kg/injection, schedule: Q01DX005 (ip), vehicle: distilled water + Tween-80) was 92 % of control.
